Laboratory results taken from patent US8039501B2, “Synephrine derivatives useful as anti-inflammatory agents” (Universiteit Gent, priority 2005, dated 2011).
“And” between values parts separate entries of the source, which are not always exact repeats. Equal values may be shown once.

What was measured:
bfl1 gene = assay: RNase protection analysis of bfl1 gene in MCF7 cells; type: cell-based, human; conditions: 10 μM pre-treated 2 hours, TNF, FIG. 9
Experimental: In a first specific gene expression experiment, RNAse protection analysis on the bfl1 gene, coding for BCL2-related protein A1 that has anti-apoptotic activity. FIG. 9 illustrates the results of the RNAse protection analysis. Cells were pre-treated with CpdA (10 μM) and DEX (1 μM) for 2 hours before TNF induction or non-induction for a total period of 8 hours. Total RNA was recovered (see hereunder for the total RNA extraction protocol) and an RNA protection Assay (hereinafter referred to as RPA) was performed. Transcripts were quantified by autoradiography followed by densiometry.
For the total RNA extraction, 10^5 cell were homogenized in 1 ml of TRIzol Reagent (GIBCO BRL), incubated 5 minutes at room temperature; then added 200 μl chloroform, vortexed 15 seconds. Mix was incubated on ice for 5 minutes. […]
RNase Protection Assay (Pharmingen) was used for the detection and quantitation of A1/bfl mRNA species. […] The pelleted RNA was re-suspended in 6 μl of gel loading buffer, incubated at 95° C. for 5 minutes, quickly quenched on ice and analyzed by electrophoresis on 6% polyacrylamide/8M urea gels. Visualization and quantitation of radioactive bands was carried out by a Phosphorlmager and scanned using a bioimaging analyzer (Personal Molecular Imager® FX Bio-Rad). Densitometry analysis of autoradiograms was performed using Quantity One (Bio-Rad). […]

B-CLL cells = assay: Annexin V/PI flow cytometric analysis of apoptosis in ex-vivo cultured B-CLL cells; type: cell-based, human; conditions: 24 hours
Experimental: Blood samples were obtained from B-CLL patients after informed consent according to institutional guidelines. CLL lymphocytes were isolated using Lymphoprep (Nycomed Pharma, Denmark) and re-suspended at a final concentration of 10−30×10^6 cells/ml in RPMI 1640 medium, supplemented with 10% heat-inactivated fetal bovine serum (FBS) (Greiner Bio-one, Wemmel, Belgium), 100 IU/ml penicillin, 100 μg/ml streptomycin, and 0.56 μg/mL fungizone (Gibco BRL, Merelbeke, Belgium). B-CLL cells were cultured in Dulbecco's Modified Eagle Medium (DMEM) (Gibco, Invitrogen Inc.) containing 10% FBS (Gibco, Invitrogen Inc.). For flow cytometric analysis of apoptosis, B-CLL cells were treated with the different compounds for 24 hours, 3×10^5 cells were removed from the culture medium, washed twice with cold PBS, and double stained with annexin V-fluorescein isothiocyanate (FITC) and propidium iodide (PI; Beckman Coulter, Miami, Fla.) in Annexin binding buffer, followed by analysis on a FC500PTM (Beckman Coulter, Nyon, Switzerland) flow cytometer. Flow cytometric data were analyzed using Cytomixs RXP software (Beckman Coulter, Nyon, Switzerland). To avoid non-specific fluorescence from dead cells, live cells were gated using forward and side scatter.
One of the early signs of apoptosis is the translocation of the membrane phospholipid phosphatidylserine from the cytoplasmic interface to the extracellular surface. Annexin V has a high affinity for the phospatidylserine-containing phospholipid bilayers. […] As the plasma membrane becomes increasingly permeable during the later stages of apoptosis, the DNA-binding dye PI can readily move across the cell membrane and bind to cellular DNA, providing a means to detect the loss of membrane integrity through mechanisms including necrosis. Three different cell populations can be observed in cells double-stained with AnnV-FITC and PI. […] Cells that stain with Ann V only are early apoptotic cells. And cells that stain with both AnnV and PI are late apoptotic/necrotic cells. The percentage of AnnV-positive B-CLL cells in the lymphocyte gate were measured by FACS and results were expressed as % apoptotic cells, i.e. sum of early apoptotic (AnnV+, PI−), and late apoptotic/dead cells (AnnV+, PI+). The percent of living cells was normalized to 100% living cells incubated in control medium with 0.1% EtOH. All measurements were made in duplicate and averaged.

CNCC(Cl)c1ccc(OC(C)=O)cc1.Cl (stereo not shown) [CpdA, 2-(4-acetoxyphenyl)-2-chloro-N-methyl-ethylammonium chloride]
Transcription of bfl1 gene (RNase protection) (bfl1 gene): inhibits transcription of the prosurvival gene A
% apoptotic cells, CLL patient 1 (B-CLL cells; 10^−6M): 43%
% apoptotic cells, CLL patient 2 (B-CLL cells; 10^−6M): 54%
Apoptosis in cells from 2 different CLL patients (B-CLL cells; 10^−7M): 40% and 55%
